Measured values published in US4444690A, “Technetium chelates” (priority 1982, dated 1984).
Entries after “also recorded” stand apart in the source; their conditions may differ. Like-named read-outs stand apart in the source and are kept apart here.

What was measured:
[1] = mice, mean of 6
Description: The time course of organ distribution was determined in groups of six Hal Cr female albino mice. They were injected with 0.10 ml (0.5 uCi) of the preparation. For comparison purposes, 0.2 uCi OIH was added to each injection. The mice were placed in metabolic cages for the collection of excreted urine. At indicated intervals after injection, the urethra was ligated and the mice killed with chloroform vapor.

[2] = Organ biodistribution time course of Tc-CO2-DADS components in mice (Table 1); format: in vivo, Hal Cr female albino mice; conditions: mice; for Blood / Intestines / Kidneys / Liver / Stomach / Urine: mean of 6, listed as Tc--CO2 DADS--B
Description: The time course of organ distribution was determined in groups of six Hal Cr female albino mice. They were injected with 0.10 ml (0.5 uCi) of the preparation. For comparison purposes, 0.2 uCi OIH was added to each injection. The mice were placed in metabolic cages for the collection of excreted urine. At indicated intervals after injection, the urethra was ligated and the mice killed with chloroform vapor. The organs were removed and counted in a dual channel counter with correction for I-131 crossover into the Tc-99m channel.

plasma proteins = experiment: Plasma protein binding, ultrafiltration; format: in vitro ADME; conditions: plasma
Description: Studies of protein binding were carried out in plasma using an ultrafiltration method described at J.Nucl.Med. 22, 258-263, 1981.

[3] = Blood disappearance rates in rats (FIG. 3); format: in vivo, male Sprague-Dawley rats; conditions: rats, FIG. 3
From the text: These determinations were made in male Sprague-Dawley rats.

[4] = rabbits, FIG. 4
Description: Organ biodistribution and acute toxicity studies were carried out in mice, blood disappearance and bile appearance rates were determined by sampling of bood or bile in rats, and renal excretion rates of the two Tc-2,3-bis(mercaptoacetamido)propanoic acid components, Tc-DTPA, and OIH were determined in rabbits because of greater ease of urine sampling. The HPLC-purified Tc-2,3-bis(mercaptoacetamido)propanoate components were used directly except for dilution as necessary. In general HPLC collected volumes were 1 to 1.5 ml and were not diluted for rabbit studies, were diluted 2- to 10-fold for rat studies and were diluted about 20-fold for mouse studies. In most cases determinations were made with simultaneous administration of OIH.
The rate of renal excretion was measured in New Zealand albino male rabbits. They were anesthetized with ketamine and xylazine and placed on a gamma camera provided with digital storage. After injection of 0.5 to 1 mCi of the Tc-99m complex containing 0.5μCi of OIH, images were collected on tape for 45 minutes. At 35 minutes after injection, urine was expelled from the bladder and the percentage of injected dose contained in the expelled urine was determined. Accumulation of bladder radioactivity was monitored by placing a region of interest over the bladder. The drop in the radioactivity in the bladder after expelling the urine sample (50-80% of the bladder radioactivity) allowed calibration of the bladder time-activity curve in terms of percent injected dose.

[5] = 120 min post injection, 120 min

| SMILES | Blood ([1]; 10 min post injection) | Intestines ([1]; 10 min post injection) | Kidneys ([1]; 10 min post injection) | Liver ([1]; 10 min post injection) | Stomach ([1]; 10 min post injection) | Urine ([1]; 10 min post injection, 10 min) | Blood ([1]; 120 min post injection) | Intestines ([1]; 120 min post injection) | Kidneys ([1]; 120 min post injection) | Liver ([1]; 120 min post injection) | Stomach ([1]; 120 min post injection) | Urine [1, 5] | further results |
| --- | --- | --- | --- | --- | --- | --- | --- | --- | --- | --- | --- | --- | --- |
| O=C(O)C1C(C(=O)O)[N]2C(=O)C[S][99Tc-]23(=[O])[S]CC(=O)[N]13 (single isomer, unassigned) [Tc--99m--2,3--(MERCAPTOACETAMIDO) SUCCINATE Component A] [Tc-99m chelate of 2,3-bis(mercaptoacetamido)succinic acid] | 10.13 | 2.16 | 3.41 | 5.80 | 0.40 | 32.32 | 0.44 | 0.30 | 7.44 | 3.17 | 0.03 | 77.73 |  |
| O=C(O)C1C[N]2C(=O)C[S][99Tc-]23(=[O])[S]CC(=O)[N]13 (single isomer, unassigned) [Tc-2,3-bis(mercaptoacetamido)propanoate-B] [Tc-99m-2,3-bis(mercaptoacetamido)propanoate] |  |  |  |  |  |  |  |  |  |  |  |  | biliary excretion in words [2]: Negligible biliary excretion; Blood ([2]; 10 min post injection): 3.64 percent injected dose; Intestines ([2]; 10 min post injection): 1.00 percent injected dose; Kidneys ([2]; 10 min post injection): 2.87 percent injected dose; Liver ([2]; 10 min post injection): 14.83 percent injected dose; Stomach ([2]; 10 min post injection): 0.13 percent injected dose; Urine ([2]; 10 min post injection, 10 min): 51.94 percent injected dose; Blood ([2]; 120 min post injection): 0.14 percent injected dose; Intestines ([2]; 120 min post injection): 0.21 percent injected dose; Kidneys ([2]; 120 min post injection): 0.14 percent injected dose; Liver ([2]; 120 min post injection): 3.71 percent injected dose; Stomach ([2]; 120 min post injection): 0.02 percent injected dose; Urine [2, 5]: 79.16 percent injected dose; renal excretion / clearance in words ([2]; comparison with OIH or component A, listed as Tc-2,3-bis(mercaptoacetamido)proponoate-B): more slowly cleared; also recorded: renal excretion was only slightly lower than OIH determined simultaneously; binding to plasma proteins (plasma proteins; 10 min): 87%; binding to plasma proteins (plasma proteins; 0.5 h): 90%; blood disappearance in words [3]: faster than Tc-DTPA, was significantly slower than Tc-2,3-bis(mercaptoacetamido)propanoate-A; blood disappearance in words ([3]; listed as component B): significantly faster than Tc-DTPA; renal excretion (urine appearance) in words [4]: significantly lower at early times, but similar to component A and OIH at 35 minutes; renal excretion (urine appearance) in words ([4]; listed as Component B): always faster than Tc-DTPA, but significantly slower than OIH or component A at early times |
| O=C(O)C1C(C(=O)O)[N]2C(=O)C[S][99Tc-]23(=[O])[S]CC(=O)[N]13 (single isomer, unassigned) [Tc--99m--2,3--(MERCAPTOACETAMIDO) SUCCINATE Component B] [Tc-99m chelate of 2,3-bis(mercaptoacetamido)succinic acid] | 16.21 | 2.88 | 3.43 | 7.06 | 0.53 | 19.32 | 0.87 | 8.85 | 0.65 | 2.33 | 0.49 | 66.92 |  |
